ChEMBL document CHEMBL3352029, “Ring fusion strategy for the synthesis of anthra[2,3-d]oxazole-2-thione-5,10-dione homologues as DNA topoisomerase inhibitors and as antitumor agents” (Eur J Med Chem, 2014)
Activity calls are given as the source filed them. The calls are words filed in the database; no cut-off is given here.

Tests used:
[1] = Cytotoxicity against human PC3 cells assessed as inhibition of cell growth after 48 hrs by sulforhodamine B assay; format: functional, cell-based; conditions: PC-3, 48 h
CCRF-CEM = assay: Cytotoxicity against human CCRF-CEM cells assessed as cell growth level at 10 uM after 48 hrs by sulforhodamine B assay; format: functional
HL-60(TB) = assay: Cytotoxicity against human HL-60(TB) cells assessed as cell growth level at 10 uM after 48 hrs by sulforhodamine B assay; format: functional
K562 = assay: Cytotoxicity against human K562 cells assessed as cell growth level at 10 uM after 48 hrs by sulforhodamine B assay; format: functional
MOLT-4 = assay: Cytotoxicity against human MOLT4 cells assessed as cell growth level at 10 uM after 48 hrs by sulforhodamine B assay; format: functional
RPMI-8226 = assay: Cytotoxicity against human RPMI8226 cells assessed as cell growth level at 10 uM after 48 hrs by sulforhodamine B assay; format: functional
A549 = assay: Cytotoxicity against human A549/ATCC cells assessed as cell growth level at 10 uM after 48 hrs by sulforhodamine B assay; format: functional
HOP-62 = assay: Cytotoxicity against human HOP62 cells assessed as cell growth level at 10 uM after 48 hrs by sulforhodamine B assay; format: functional
HOP-92 = assay: Cytotoxicity against human HOP92 cells assessed as cell growth level at 10 uM after 48 hrs by sulforhodamine B assay; format: functional
NCI-H226 = assay: Cytotoxicity against human NCI-H226 cells assessed as cell growth level at 10 uM after 48 hrs by sulforhodamine B assay; format: functional
NCI-H23 = assay: Cytotoxicity against human NCI-H23 cells assessed as cell growth level at 10 uM after 48 hrs by sulforhodamine B assay; format: functional
NCI-H322M = assay: Cytotoxicity against human NCI-H322M cells assessed as cell growth level at 10 uM after 48 hrs by sulforhodamine B assay; format: functional
NCI-H460 = assay: Cytotoxicity against human NCI-H460 cells assessed as cell growth level at 10 uM after 48 hrs by sulforhodamine B assay; format: functional
NCI-H522 = assay: Cytotoxicity against human NCI-H522 cells assessed as cell growth level at 10 uM after 48 hrs by sulforhodamine B assay; format: functional
COLO 205 = assay: Cytotoxicity against human COLO205 cells assessed as cell growth level at 10 uM after 48 hrs by sulforhodamine B assay; format: functional
HCC 2998 = assay: Cytotoxicity against human HCC2998 cells assessed as cell growth level at 10 uM after 48 hrs by sulforhodamine B assay; format: functional
[2] = Cytotoxicity against human HCT116 cells assessed as cell growth level at 10 uM after 48 hrs by sulforhodamine B assay; format: functional, HCT-116
[3] = Cytotoxicity against human HCT15 cells assessed as cell growth level at 10 uM after 48 hrs by sulforhodamine B assay; format: functional, HCT-15
HT-29 = assay: Cytotoxicity against human HT-29 cells assessed as cell growth level at 10 uM after 48 hrs by sulforhodamine B assay; format: functional
KM12 = assay: Cytotoxicity against human KM12 cells assessed as cell growth level at 10 uM after 48 hrs by sulforhodamine B assay; format: functional
SW-620 = assay: Cytotoxicity against human SW620 cells assessed as cell growth level at 10 uM after 48 hrs by sulforhodamine B assay; format: functional
SF-268 = assay: Cytotoxicity against human SF268 cells assessed as cell growth level at 10 uM after 48 hrs by sulforhodamine B assay; format: functional
SF-295 = assay: Cytotoxicity against human SF295 cells assessed as cell growth level at 10 uM after 48 hrs by sulforhodamine B assay; format: functional
SF-539 = assay: Cytotoxicity against human SF539 cells assessed as cell growth level at 10 uM after 48 hrs by sulforhodamine B assay; format: functional
SNB-19 = assay: Cytotoxicity against human SNB19 cells assessed as cell growth level at 10 uM after 48 hrs by sulforhodamine B assay; format: functional
SNB-75 = assay: Cytotoxicity against human SNB75 cells assessed as cell growth level at 10 uM after 48 hrs by sulforhodamine B assay; format: functional
U-251 = assay: Cytotoxicity against human U251 cells assessed as cell growth level at 10 uM after 48 hrs by sulforhodamine B assay; format: functional
LOX IMVI = assay: Cytotoxicity against human LOXIMVI cells assessed as cell growth level at 10 uM after 48 hrs by sulforhodamine B assay; format: functional
Malme-3M = assay: Cytotoxicity against human MALME-3M cells assessed as cell growth level at 10 uM after 48 hrs by sulforhodamine B assay; format: functional
M14 = assay: Cytotoxicity against human M14 cells assessed as cell growth level at 10 uM after 48 hrs by sulforhodamine B assay; format: functional
MDA-MB-435 = assay: Cytotoxicity against human MDA-MB-435 cells assessed as cell growth level at 10 uM after 48 hrs by sulforhodamine B assay; format: functional
SK-MEL-2 = assay: Cytotoxicity against human SK-MEL-2 cells assessed as cell growth level at 10 uM after 48 hrs by sulforhodamine B assay; format: functional
SK-MEL-28 = assay: Cytotoxicity against human SK-MEL-28 cells assessed as cell growth level at 10 uM after 48 hrs by sulforhodamine B assay; format: functional
SK-MEL-5 = assay: Cytotoxicity against human SK-MEL-5 cells assessed as cell growth level at 10 uM after 48 hrs by sulforhodamine B assay; format: functional
[4] = Cytotoxicity against human UACC257 cells assessed as cell growth level at 10 uM after 48 hrs by sulforhodamine B assay; format: functional, UACC-257
[5] = Cytotoxicity against human UACC62 cells assessed as cell growth level at 10 uM after 48 hrs by sulforhodamine B assay; format: functional, UACC-62
IGROV-1 = assay: Cytotoxicity against human IGROV1 cells assessed as cell growth level at 10 uM after 48 hrs by sulforhodamine B assay; format: functional
[6] = Cytotoxicity against human OVCAR3 cells assessed as cell growth level at 10 uM after 48 hrs by sulforhodamine B assay; format: functional, OVCAR-3
[7] = Cytotoxicity against human OVCAR5 cells assessed as cell growth level at 10 uM after 48 hrs by sulforhodamine B assay; format: functional, OVCAR-5
[8] = Cytotoxicity against human OVCAR8 cells assessed as cell growth level at 10 uM after 48 hrs by sulforhodamine B assay; format: functional, OVCAR-8
[9] = Cytotoxicity against human NCI-ADR-RES cells assessed as cell growth level at 10 uM after 48 hrs by sulforhodamine B assay; format: functional
[10] = Cytotoxicity against human SKOV3 cells assessed as cell growth level at 10 uM after 48 hrs by sulforhodamine B assay; format: functional, SK-OV-3
786-0 = assay: Cytotoxicity against human 786-0 cells assessed as cell growth level at 10 uM after 48 hrs by sulforhodamine B assay; format: functional
A498 = assay: Cytotoxicity against human A498 cells assessed as cell growth level at 10 uM after 48 hrs by sulforhodamine B assay; format: functional
ACHN = assay: Cytotoxicity against human ACHN cells assessed as cell growth level at 10 uM after 48 hrs by sulforhodamine B assay; format: functional
CAKI-1 = assay: Cytotoxicity against human CAKI-1 cells assessed as cell growth level at 10 uM after 48 hrs by sulforhodamine B assay; format: functional
RXF 393 = assay: Cytotoxicity against human RXF393 cells assessed as cell growth level at 10 uM after 48 hrs by sulforhodamine B assay; format: functional
SN12C = assay: Cytotoxicity against human SN12C cells assessed as cell growth level at 10 uM after 48 hrs by sulforhodamine B assay; format: functional
[11] = Cytotoxicity against human UO31 cells assessed as cell growth level at 10 uM after 48 hrs by sulforhodamine B assay; format: functional, UO-31
[12] = Cytotoxicity against human PC3 cells assessed as cell growth level at 10 uM after 48 hrs by sulforhodamine B assay; format: functional, PC-3
DU-145 = assay: Cytotoxicity against human DU145 cells assessed as cell growth level at 10 uM after 48 hrs by sulforhodamine B assay; format: functional
MCF7 = assay: Cytotoxicity against human MCF7 cells assessed as cell growth level at 10 uM after 48 hrs by sulforhodamine B assay; format: functional
MDA-MB-231 = assay: Cytotoxicity against human MDA-MB-231 cells assessed as cell growth level at 10 uM after 48 hrs by sulforhodamine B assay; format: functional
[13] = Cytotoxicity against human Hs 578T cells assessed as cell growth level at 10 uM after 48 hrs by sulforhodamine B assay; format: functional
BT-549 = assay: Cytotoxicity against human BT549 cells assessed as cell growth level at 10 uM after 48 hrs by sulforhodamine B assay; format: functional
T47D = assay: Cytotoxicity against human T47D cells assessed as cell growth level at 10 uM after 48 hrs by sulforhodamine B assay; format: functional
MDA-MB-468 = assay: Cytotoxicity against human MDA-MB-468 cells assessed as cell growth level at 10 uM after 48 hrs by sulforhodamine B assay; format: functional
[14] = biological target: T1, DNA topoisomerase 1 (Homo sapiens) (UniProt P11387); assay: Inhibition of human recombinant DNA topoisomerase 1 assessed as reduction in relaxation of supercoiled pHOT DNA at 25 to 50 uM incubated for 45 mins by ethidium bromide staining based gel electrophoresis
T1 sequence (whole entry): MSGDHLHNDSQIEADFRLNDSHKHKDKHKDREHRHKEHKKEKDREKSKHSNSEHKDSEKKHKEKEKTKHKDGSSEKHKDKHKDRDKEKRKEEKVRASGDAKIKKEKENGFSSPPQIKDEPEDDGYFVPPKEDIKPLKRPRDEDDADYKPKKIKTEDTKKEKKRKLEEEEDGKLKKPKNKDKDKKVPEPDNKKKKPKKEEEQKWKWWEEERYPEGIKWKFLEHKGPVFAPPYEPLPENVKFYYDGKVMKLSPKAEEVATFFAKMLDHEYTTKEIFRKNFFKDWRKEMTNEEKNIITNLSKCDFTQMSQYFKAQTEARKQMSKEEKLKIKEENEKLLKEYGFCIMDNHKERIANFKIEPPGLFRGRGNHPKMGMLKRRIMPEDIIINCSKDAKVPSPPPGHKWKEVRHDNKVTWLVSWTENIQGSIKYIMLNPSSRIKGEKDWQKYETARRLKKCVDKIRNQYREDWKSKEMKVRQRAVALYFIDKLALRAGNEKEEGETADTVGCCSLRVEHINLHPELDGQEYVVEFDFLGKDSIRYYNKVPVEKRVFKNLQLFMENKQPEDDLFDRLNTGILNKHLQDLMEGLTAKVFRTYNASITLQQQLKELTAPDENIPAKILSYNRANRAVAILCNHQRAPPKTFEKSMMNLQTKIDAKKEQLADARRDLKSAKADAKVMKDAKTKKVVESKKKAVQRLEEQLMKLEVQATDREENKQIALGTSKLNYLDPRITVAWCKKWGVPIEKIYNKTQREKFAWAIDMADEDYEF

`O=C(CCN1CCCC1)Nc1cc2c(cc1O)C(=O)c1ccccc1C2=O` gave an IC50 [1] of over 30 µM, an Activity (CCRF-CEM) of 87.09% and an Activity (HL-60(TB)) of 103.96%. For the same molecule, the Activity (K562) was 106.34%, the Activity (MOLT-4) was 114.86% and the Activity (RPMI-8226) was 86.61%. The Activity (A549) was 98.4%, the Activity (HOP-62) was 98.3% and the Activity (HOP-92) was 83.51%. For the same molecule, the Activity (NCI-H226) was 89.38%, the Activity (NCI-H23) was 91.17% and the Activity (NCI-H322M) was 108.8%. It also gave an Activity (NCI-H460) of 101.03%, an Activity (NCI-H522) of 89.35% and an Activity (COLO 205) of 118.26%. For the same molecule, the Activity (HCC 2998) was 98.08%, the Activity [2] was 98.96% and the Activity [3] was 97.11%. For the same molecule, the Activity (HT-29) was 67.12%, the Activity (KM12) was 106.65% and the Activity (SW-620) was 106.36%. For the same molecule, the Activity (SF-268) was 97.79%, the Activity (SF-295) was 93.19% and the Activity (SF-539) was 98.8%. It also gave an Activity (SNB-19) of 96.45%, an Activity (SNB-75) of 89.48% and an Activity (U-251) of 95.72%. For the same molecule, the Activity (LOX IMVI) was 107.45%, the Activity (Malme-3M) was 142.32% and the Activity (M14) was 96.96%. The Activity (MDA-MB-435) was 103.97%, the Activity (SK-MEL-2) was 102.06% and the Activity (SK-MEL-28) was 104.99%. The Activity (SK-MEL-5) was 102.47%, the Activity [4] was 113% and the Activity [5] was 94.37%. It also gave an Activity (IGROV-1) of 112.79%, an Activity [6] of 108.53% and an Activity [7] of 100.56%. It also gave an Activity [8] of 100.18%, an Activity [9] of 103.64% and an Activity [10] of 104.33%. The Activity (786-0) was 99.72%, the Activity (A498) was 86.98% and the Activity (ACHN) was 82.72%. The Activity (CAKI-1) was 82.42%, the Activity (RXF 393) was 103.62% and the Activity (SN12C) was 100.6%. The Activity [11] was 79.74%, the Activity [12] was 91.56% and the Activity (DU-145) was 105.86%. It also gave an Activity (MCF7) of 56.43%, an Activity (MDA-MB-231) of 92.22% and an Activity [13] of 97.73%. It also gave an Activity (BT-549) of 96.56%, an Activity (T47D) of 74.5% and an Activity (MDA-MB-468) of 93.65%.
In the case of `O=C(CCN1CCCCC1)Nc1cc2c(cc1O)C(=O)c1ccccc1C2=O`, the IC50 [1] is reported as over 30 µM.
For `O=C1c2ccccc2C(=O)c2cc3oc(SCc4ccccc4F)nc3cc21`, the IC50 [1] was over 30 µM.
For `O=C1c2ccccc2C(=O)c2cc3oc(=S)[nH]c3cc21`, the IC50 [1] was over 30 µM and the inhibition [14] was “inactive”.
`O=C1c2ccccc2C(=O)c2cc3oc(SCCc4ccccc4)nc3cc21` gave an IC50 [1] of over 30 µM.
Molecule `O=C1c2ccccc2C(=O)c2cc3oc(SCc4ccccc4[N+](=O)[O-])nc3cc21` has an IC50 [1] of over 30 µM.
